Measurements: US20130240456A1, “DEVICE AND METHOD FOR LABEL-FREE SEPARATION OF MATERIAL USING MAGNETIC FIELD” (THE GOVERNING COUNCIL OF THE UNIVERSITY OF TORONTO, priority 2012, published 2013)

Key:
adult mouse CM = details: 2.5 mM NaNO2, versus untreated, unseparated control
Experimental: Adult mouse CMs were isolated and suspended in Kraft Bruhe (KB) solution at 4° C. The KB solution consisted of 120 mM K-glutamate, 10 mM KCl, 10 mM KH2PO4, 2 mM MgSO4.7H2O, 10 mM Taurine, 5 mM Creatine, 10 mM HEPES, 10 mM Glucose, 0.5 mM EGTA, 0.10% Bovine Serum Albumin (BSA) and a final pH of 7.3 adjusted with KOH. The adult mouse CMs in KB solution were then split into three groups. Each of these three KB solutions containing adult mouse CMs was then further split into four groups; in total, 12 groups of adult mouse CMs in KB solution were maintained at 4° C. and allowed to settle to the bottom of Eppendorf tubes.
The Eppendorf containing KB Solution and adult mouse CMs was left untouched. The other three Eppendorf tubes had the KB solution removed. […] The four Eppendorf tubes were then returned to 4° C. environment to allow the cells settle.
The other three Eppendorf tubes containing adult mouse CMs in the three other solutions were left at room temperature while the device was running.
At the end of the sorting process, each of the Eppendorf tubes that had been sitting at room temperature were equally split into 24-well plate wells. The sorted run was emptied into one well. An equal volume of trypan blue was added to each well. After a minute, 1 mL of either KB or HBSS and 30% FBS was added to each of the wells depending on the group. […]

myoglobin [1] = biological target: myoglobin (Mus musculus, UniProt P04247); details: 2.5 mM NaNO2, ratio of absorbance 635 nm/525 nm
Experimental: (§1) UV-vis measurements were made in cells lysed with NP40 Lysis Buffer, for 30 min on ice, with cell debris spun down at 13000 rpm for 10 min at 4° C. […] ND-1000 Nanodrop spectrophotometer (from Nanodrop Technologies, Inc., Wilmington, Del., USA) was used to collect absorption spectra from 200-700 nm.

myoglobin [2] = biological target: myoglobin (Rattus norvegicus, UniProt Q9QZ76)
Chain of myoglobin (Rattus norvegicus, UniProt Q9QZ76) (Q9QZ76 whole entry): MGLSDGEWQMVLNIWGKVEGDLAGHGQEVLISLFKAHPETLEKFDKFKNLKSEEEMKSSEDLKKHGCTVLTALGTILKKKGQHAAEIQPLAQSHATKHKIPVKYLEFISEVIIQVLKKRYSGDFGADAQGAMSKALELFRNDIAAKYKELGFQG
Experimental: as §1

neonatal rat CM [3] = details: constructs of treated and control cells, no significant differences
Experimental: Contractile properties of CMs were measured by field stimulation in an electrical stimulation chamber consisting of two parallel carbon electrodes spaced 1 cm apart as described in [24]. Stimulation was provided by an external electric stimulator (Grass s88x). Using monophasic pulses of 2 ms duration and frequency of 1 pulse per second, the excitation threshold (minimum voltage at which synchronous contractions of 75% of the tissue in the field of view can be observed) was first determined. Then the maximum capture rate (maximum beating frequency) was determined at 200% of the determined excitation threshold voltage.

neonatal rat CM [4] = details: horizontal device study
Experimental: Cell viability was determined immediately after treatment. In addition, the cells were cultivated in 3D for 7 days as described below.
Live/dead staining was performed by incubating the cells or constructs in a solution of carboxyfluorescein diacetate-succinimidyl ester (CFDA-SE, 10 μM, from Molecular Probes) and propidium iodide (PI, 2.5 μg/mL, from Molecular Probes) for 30-45 minutes at 37° C., according to the manufacturer's protocol (from Molecular Probes, Burlington, Canada). The cells were imaged using a fluorescent microscope (Leica DMIRE2, from Wetzlar, Germany). […] Following treatment, the cells were washed in HBSS, and incubated for 5 hrs in 37° C./5% CO2 incubator. Non-viable cells with compromised cell membranes could be identified by red fluorescence due to binding of PI to their nuclei, while viable cells converted CFDA-SE to the green fluorescent dye […] by esterase-mediated cleavage.
Live/dead staining was performed by incubating the cells or constructs in a solution of carboxyfluorescein diacetate-succinimidyl ester (CFDA-SE, 10 μM, from Molecular Probes) and propidium iodide (PI, 2.5 μg/mL, from Molecular Probes) for 30-45 minutes at 37° C., according to the manufacturer's protocol (from Molecular Probes, Burlington, Canada). The cells were imaged using a fluorescent microscope (Leica DMIRE2, from Wetzlar, Germany). […]

Chain of myoglobin (Mus musculus, UniProt P04247) (P04247 whole entry): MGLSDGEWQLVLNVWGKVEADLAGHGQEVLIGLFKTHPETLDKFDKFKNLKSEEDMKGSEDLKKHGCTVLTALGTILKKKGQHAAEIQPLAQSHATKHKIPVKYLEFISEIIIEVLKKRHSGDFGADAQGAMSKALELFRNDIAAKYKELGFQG

O=NO [NaNO2, sodium nitrite]
viability of adult mouse CM after separation and subsequent culture for 24 hr (adult mouse CM): not compromised | time of maximum metmyoglobin induction after nitrite was introduced (myoglobin [1]): about 45 min | conversion of Mb to metMb (myoglobin [2]; 50 mM NaNO2, 30 min, referencing to the 1 hr time point): 92±3.5% | time at which metMb induction reached the equilibrium value (myoglobin [2]; 50 mM NaNO2, transient study): 30 min | semi-quantitative fold conversion to metMb (myoglobin [2]; 50 mM NaNO2, transient study, stabilized value): about 10 times the initial metMb amount | excitation threshold (ET) (neonatal rat CM [3]): about 4.5±1.3 V/cm | maximum capture rate (MCR) (neonatal rat CM [3]): about 8.3±1.0 pps | viability of CMs after treatment with NaNO2 (FIGS. 23A and 23B) (neonatal rat CM [4]): unaffected
